Read-outs that look alike come from different tables or passages of the source.
Assays:
fat-3(wa22) mutant [1] = experiment: Brood size assay after dietary PUFA supplementation; assay type: in vivo, C. elegans; conditions: for hatching and brood size defects: fat-3(wa22), 200 μM in E. coli OP50 diet, p < 0.0001
Protocol: (§1) Ten mM stock solutions of AA, ω-3 AA and JuA were prepared in DMSO and kept at −20 °C. These stocks were diluted in E. coli OP50 to a final concentration of 200 μM, and 100 μL of the volume was seeded onto each plate, with appropriate DMSO controls, allowing drying for 1 h in the dark. The animals that were treated with the PUFAs from hatching were allowed to grow on these plates until they reached L4 larval stage.
N2 (WT) and fat-3(wa22) were transferred onto NGM plates supplemented with PUFAs as described above. Once they reached L4 larval stage, one worm per plate was transferred to a plate freshly seeded with PUFAs and allowed to grow at 23 °C. These animals were transferred to new plates every 24 h until they ceased to lay eggs. The number of hatched progeny was checked and counts were performed after the population reached L3/L4 stage. This assay was carried out in three independent trials. Results were analyzed with GraphPad Prism 5®, San Diego, CA, USA. The data were pooled and analyzed using Student’s t test. p < 0.05 was accepted as statistically significant.
The RNA interference (RNAi) by feeding assay was performed on NGM agar plates supplemented with additional antibiotics ([…], […]) and 0.8 mM isopropyl-β-D-thiogalactopyranosid (IPTG). The Ahringer RNAi collection was used, E. coli HT115 bacteria containing RNAi vectors expressing double-stranded RNA of the genes fat-4, elo-1, and elo-2 were pre-cultured, induced with IPTG, and used as nematode food as described previously. Assays were carried out on plates seeded with RNAi bacteria induced overnight; the PUFAs were dissolved in sterile distilled water, and then overlaid on the plates just before the assays.

N2 (WT) animals = experiment: Lifespan assay, N2 (WT); assay type: in vivo, C. elegans; conditions: supplementation, 23 °C, 50 μg/mL FUDR
Protocol: as §1
All lifespan assays were carried out at 23 °C. Synchronized populations were obtained by allowing 10–15 hermaphrodites lay eggs overnight, and the next day the parents were removed. The eggs were allowed to hatch and 30 L4/young adult animals per plate (NGM plate containing 50 μg/mL FUDR to prevent the growth of progeny) were used for each assay. All the assays were carried out at least in triplicates and a minimum of two independent trials were performed for all conditions. The dead animals were counted starting the next day and exploding, protruding, bagging or contaminated animals were censored if applicable. We defined the day when we transferred the L4/young adult animals as day 0 of adult age. All statistical analyses were carried out using results that were analyzed with GraphPad Prism 5®. Kaplan–Meier lifespan analysis was carried out, and p values were calculated using the log-rank test. p < 0.05 was accepted as statistically significant.

fat-3(wa22) mutant [2] = experiment: Development monitoring after dietary PUFA supplementation; assay type: in vivo, C. elegans; conditions: 200 μM in E. coli OP50 diet, 36 h after hatching, 23 °C
Protocol: as §1, with “stage. For monitoring the development N2 (WT) and fat-3(wa22) gravid animals were allowed to lay eggs for 2–3 h. These eggs were transferred onto NGM plates supplemented with PUFAs as described above. Their growth was monitored and then imaged using an AmScope MU1000 camera, USA.” for “stage.”

FAAH = target: T1, FAAH (Sus scrofa, UniProt Q9TUI8); experiment: Competitive [3H]AEA hydrolysis assay in pig brain homogenate; assay type: biochemical
T1 construct: or pig brain homogenate (200 µg per sample); from tissue; host or cells: pig brain homogenate
T1 sequence (Q9TUI8 1-579): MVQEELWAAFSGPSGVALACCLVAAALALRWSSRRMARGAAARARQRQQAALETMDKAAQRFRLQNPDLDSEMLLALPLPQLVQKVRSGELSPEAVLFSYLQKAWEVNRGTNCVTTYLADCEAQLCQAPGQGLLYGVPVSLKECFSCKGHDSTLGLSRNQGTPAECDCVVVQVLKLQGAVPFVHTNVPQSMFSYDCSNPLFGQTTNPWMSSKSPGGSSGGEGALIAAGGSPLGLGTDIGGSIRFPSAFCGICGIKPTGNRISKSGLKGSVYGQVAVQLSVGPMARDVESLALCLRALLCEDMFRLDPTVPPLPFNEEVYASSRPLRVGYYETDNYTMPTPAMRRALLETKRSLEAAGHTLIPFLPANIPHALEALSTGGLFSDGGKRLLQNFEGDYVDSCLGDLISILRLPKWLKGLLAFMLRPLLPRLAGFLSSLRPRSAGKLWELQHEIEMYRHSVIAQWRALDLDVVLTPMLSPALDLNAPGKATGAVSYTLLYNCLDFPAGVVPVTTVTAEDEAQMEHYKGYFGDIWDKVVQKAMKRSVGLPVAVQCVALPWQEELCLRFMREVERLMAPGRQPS
Protocol: AEA and [^3H] 2-OG, respectively. The reaction was performed using worm homogenate (200 or 100 µg per sample) or pig brain homogenate (200 µg per sample) in 194 μL of assay buffer (10 mM Tris-HCl, 1 mM EDTA, 0.1 % BSA, pH 8.0). […] The reaction was stopped by adding 400 μL of ice-cold mixture CHCl3-CH3OH (1:1 v/v), and, subsequently, tubes were vortexed and centrifuged for 10 min at 4 °C and 10,000 rpm. Finally, the upper aqueous phase was transferred to scintillation vials and mixed with 3 mL of Ultima Gold scintillation liquid. Signal was detected with TRICARB 2100TR scintillation counter and results were analyzed with GraphPad Prism 5® and expressed as [^3H] AEA or [^3H] 2-OG hydrolysis (% of vehicle).

NPR-32 = target: T2, NPR-32 (Caenorhabditis elegans, UniProt O62403); experiment: NPR-32 competitive binding assay with [3H]CP55,940 on N2 (WT) membrane preparations; design: species or system C. elegans
T2 sequence (O62403 1-440): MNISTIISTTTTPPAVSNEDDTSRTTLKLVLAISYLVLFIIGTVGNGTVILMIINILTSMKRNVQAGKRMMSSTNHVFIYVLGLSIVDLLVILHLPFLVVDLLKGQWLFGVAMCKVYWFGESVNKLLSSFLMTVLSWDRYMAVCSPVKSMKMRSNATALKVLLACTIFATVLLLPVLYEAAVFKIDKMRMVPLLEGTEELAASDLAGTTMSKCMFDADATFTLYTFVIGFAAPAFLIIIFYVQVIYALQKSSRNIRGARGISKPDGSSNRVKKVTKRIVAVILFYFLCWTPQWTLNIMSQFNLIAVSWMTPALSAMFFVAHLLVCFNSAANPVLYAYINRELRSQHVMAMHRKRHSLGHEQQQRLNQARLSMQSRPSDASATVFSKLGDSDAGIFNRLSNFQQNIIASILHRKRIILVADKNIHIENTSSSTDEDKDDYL
Protocol: (§2) Worm homogenization and membrane preparation: the animals were collected from NGM plates as described before. The animals were freshly broken/homogenized by tip sonication before the beginning of every assays in S-basal and then a protein estimation was carried out for these samples, by a standard BCA kit (Sigma-Aldrich, St. Louis, MO, USA). For membrane preparations the worm pellet was resuspended in homogenization buffer (50 mM Tris HCl pH = 7.4, 3 mM MgCl2, 1 mM EGTA). Next, the homogenate was transferred to an ultracentrifuge tube and spun at 100,000× g for 60 min at 4 °C. The supernatant was carefully removed and the pellet was gently washed. Then, the pellet was resuspended with the help of a polytron in 50 mM Tris HCl pH = 7.4 and passed through a clean syringe. Finally, the sample was sonicated in a water bath for 5 min. A protein estimation for the membranes was carried out and the aliquots were frozen and stored at −80 °C.
CP55,940 for 75 min at 30 °C. After the incubation time, membrane suspensions were rapidly filtered through a 0.1% polyethyleneimine presoaked 96-well microplate bonded with GF/B glass fiber filters (UniFilter-96 GF/B, PerkinElmer Life Sciences) under vacuum and washed 12 times with 120 µL of washing buffer (50 mM Tris-HCl, 2.5 mM EDTA, 5 mM MgCl2, 0.5% BSA, pH 7.5). […] The results were analyzed with GraphPad Prism 5® and expressed as % of [^3H]CP55,940 binding. IC50 values of each compound were estimated from fitted nonlinear curves and were used to calculate the Ki values by applying the Cheng-Prusoff equation.

FAAH-1 = target: T3, FAAH-1 (Caenorhabditis elegans, UniProt Q17449); experiment: Competitive [3H]AEA hydrolysis assay in whole worm homogenate; assay type: biochemical, C. elegans
T3 construct: from tissue; host or cells: whole C. elegans worm homogenate
T3 sequence (Q17449 15-572): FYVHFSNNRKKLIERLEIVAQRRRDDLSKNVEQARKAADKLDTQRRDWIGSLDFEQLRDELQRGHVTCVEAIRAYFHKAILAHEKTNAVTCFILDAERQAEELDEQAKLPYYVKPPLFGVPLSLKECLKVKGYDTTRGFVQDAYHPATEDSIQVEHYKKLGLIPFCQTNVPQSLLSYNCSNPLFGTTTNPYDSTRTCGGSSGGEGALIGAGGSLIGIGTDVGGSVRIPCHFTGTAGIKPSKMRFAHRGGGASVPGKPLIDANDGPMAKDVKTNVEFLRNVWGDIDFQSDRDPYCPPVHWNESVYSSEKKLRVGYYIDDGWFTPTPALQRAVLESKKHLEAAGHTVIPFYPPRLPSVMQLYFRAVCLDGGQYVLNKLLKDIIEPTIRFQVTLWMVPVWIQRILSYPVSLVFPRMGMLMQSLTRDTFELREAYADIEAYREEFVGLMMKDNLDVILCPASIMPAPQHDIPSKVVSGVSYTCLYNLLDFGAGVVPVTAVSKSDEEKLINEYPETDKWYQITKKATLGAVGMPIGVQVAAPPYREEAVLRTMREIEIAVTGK
Protocol: as §2
(§3) AEA and [^3H] 2-OG, respectively. The reaction was performed using worm homogenate (200 or 100 µg per sample) or pig brain homogenate (200 µg per sample) in 194 μL of assay buffer (10 mM Tris-HCl, 1 mM EDTA, 0.1 % BSA, pH 8.0). […] Signal was detected with TRICARB 2100TR scintillation counter and results were analyzed with GraphPad Prism 5® and expressed as [^3H] […]

[3] = tested on: 2-OG hydrolysis in whole worm homogenates; experiment: Competitive [3H]2-OG hydrolysis assay in whole worm homogenate; assay type: biochemical, C. elegans
Protocol: as §2, §3

MAGL = experiment: Competitive [3H]2-OG hydrolysis assay in pig brain homogenate; assay type: biochemical
[4] = read-out: Ki, NPR-32 binding; displacement of 3 nM [3H]CP55,940, N2 (WT) membranes, 5 µM JZL-195 preincubation; apparent Ki by Cheng-Prusoff; 95% CI
[5] = displacement of 3 nM [3H]CP55,940, N2 (WT) membranes, 5 µM JZL-195 preincubation; apparent Ki by Cheng-Prusoff; 95% CI; read-out: Ki, NPR-32 binding

Compound: CCCCC/C=C\C/C=C\C/C=C\C/C=C\CCCC(=O)O [AA, Arachidonic acid]
- hatching and brood size defects (fat-3(wa22) mutant [1]): recovered
- effect on lifespan (N2 (WT) animals): did not affect the lifespan
- recovery of growth and development defects (fat-3(wa22) mutant [2]): significant recovery of growth and development defects

Compound: CC/C=C\C/C=C\C/C=C\C/C=C\CCCCCCC(=O)NCCO [ω-3 AEA, Omega-3 N-arachidonoyl ethanolamine]
- IC50 (FAAH; 20 min 37 °C, AEA final 2 µM, read-out: IC50, competition with [3H]-AEA hydrolysis): > 100000 nM
- Ki (NPR-32; [4]): 1000 nM
- IC50 (FAAH-1; whole worm homogenate, 20 min 37 °C, AEA final 2 µM, read-out: IC50, competition with [3H] AEA hydrolysis): 36000 nM

Compound: CC/C=C\C/C=C\C/C=C\CCCC/C=C\CCCC(=O)NCCO [JEA, N-juniperoyl ethanolamine]
- hydrolysis by FAAH (competition with tritiated AEA) (FAAH): readily hydrolyzed
- Ki (NPR-32; [5]): 740 nM
- competition with AEA hydrolysis (FAAH-1; whole worm homogenates): competed

Compound: CC/C=C\C/C=C\C/C=C\CCCC/C=C\CCCC(=O)O [JuA, Juniperonic acid]
- reversal of growth delay and brood size reduction in RNAi knockdowns (fat-3(wa22) mutant [1]; fat-3(wa22) with fat-4 and elo-2 RNAi knockdown, JuA supplementation): could reverse the additional detrimental effects
- hatching and brood size defects (fat-3(wa22) mutant [1]): recovered
- effect on lifespan (N2 (WT) animals): did not affect the lifespan
- recovery of growth and development defects (fat-3(wa22) mutant [2]): significant recovery of growth and development defects

Compound: Omega-3 1/2-arachidonoyl glycerol [ω-3 1/2-AG]
- competition with 2-OG hydrolysis [3]: competed

Compound: CC/C=C\C/C=C\C/C=C\C/C=C\CCCCCCC(=O)O [ω-3 AA, Omega-3 arachidonic acid]
- hatching and brood size defects (fat-3(wa22) mutant [1]): recovered
- effect on lifespan (N2 (WT) animals): did not affect the lifespan
- recovery of growth and development defects (fat-3(wa22) mutant [2]): significant recovery of growth and development defects

Compound: CCCCC/C=C\C/C=C\C/C=C\C/C=C\CCCC(=O)NCCO [AEA, N-arachidonoyl ethanolamine]
- Ki (NPR-32; [4]): 1900 nM

Compound: 1/2-juniperoylglycerol [1/2-JG]
- Ki (NPR-32; [5]): 1100 nM
- hydrolysis by MAGL (competition with tritiated 2-OG) (MAGL): readily hydrolyzed
- competition with 2-OG hydrolysis [3]: competed
